Data as given in patent US6756209B1, “7-Alkoxycoumarins as CYP2C9 substrates and activity assay” (SmithKline Beecham p.l.c., priority 1998, dated 2004).

COc1ccc2c(C(F)(F)F)c(CC(=O)O)c(=O)oc2c1
melting point: 198.5 to 200 °C
